Results reported in a melting point compilation (Tetko et al.; mined from patent text by program, amines drawn as free bases though some values may be those of a salt).

Structure (SMILES)	melting point [°C]
CC(C)(C)c1cc(C(=O)NC2CCCCC2)cc(C(C)(C)C)c1O	236 to 237
O=C1NC(N2CCN(c3cnc(Cl)cn3)CC2)c2ccccc21 (configuration not stated)	263 to 266
C=C(C)CCOc1ccc([N+](=O)[O-])cc1Cl	38 to 39
CCC(C)n1cc(Cl)nc(N2CCc3cc(Br)cc(Cl)c32)c1=O (configuration not stated)	150
[N-]=[N+]=N[Si](c1ccccc1)(c1ccccc1)c1ccccc1	82 to 84
COc1ccc(S(=O)(=O)Nc2ccccc2NC(=O)c2ccc(F)cc2)cc1	169 to 170
CC1CC(=O)c2ccc(C(C)C(=O)O)cc2C1 (configuration not stated)	196 to 199
CC(=O)Oc1cc(OC(C)=O)c(C)c(C(=O)OCC(Cl)(Cl)Cl)c1C	127 to 128
CCOC(=O)C1=C(C)N2CCNC2=C(C(=O)OCC)C1c1ccco1 (configuration not stated)	164
COc1cc(OC)c2c(c1)OC(C(C)(C)C#N)CC2=O (configuration not stated)	170
O=C(Nc1ccc2[nH]cnc2c1)C(=O)N1CCC(Cc2ccc(F)cc2)CC1	104 to 110
CN1CCN(CCCNc2ncc3cc(-c4c(Cl)cccc4Cl)c(=O)n(C)c3n2)CC1	170 to 172
CCOc1csc(N)c1C#N	145 to 146
O=c1oc(Nc2ccccc2I)nc2ccccc12	140 to 143
CC(C)(C)OC(=O)C(=NOC(C)(C)C(=O)OCC[Si](C)(C)C)c1csc(N)n1	83
CCOC(=O)c1cnc2c(F)c(F)c(F)cc2c1Cl	110 to 112
CCn1c(OC(C)C)n[nH]c1=O	69 to 70
CC1(C)OC(C=Cc2ccncc2)=CC1=O	94 to 96
CCN(C)c1nc(-c2cc(OC)c(OC)c(OC)c2)nc2sc(C#N)c(C)c12	163 to 164
O=C(O)c1cc2ccc3[nH]ccc3c2[nH]1	248 to 250
CC1(C)CCC(C)(C)c2cc(CCc3ncccn3)c(C=O)cc21	78 to 84.5
O=c1[nH]nc(Br)c2ccccc12	268 to 271
Cc1nc2c(s1)-c1nc(Nc3cccc([N+](=O)[O-])c3)ncc1CC2	227 to 228

Structure (SMILES)	melting point [°C]
CCc1n[nH]c(=O)c2ccc(OC)cc12	230 to 235
O=CNC1CCCc2sc(Br)cc21 (configuration not stated)	104 to 108
O=C(O)CC(=O)OCC(Cl)(Cl)Cl	42 to 43
CNC(=O)C(=C/c1ccccc1)/C(=C\c1cc(OC)c(OC)c(OC)c1)C(=O)OC	155 to 157
O=C(O)C1Oc2ccc3c(-c4ccccc4)noc3c2O1 (configuration not stated)	187 to 190
NC(=O)[C@@H]1[C@H](Nc2c(Br)cnc3[nH]c(-c4ccc(N5CCOCC5)cc4)nc23)[C@H]2C=C[C@@H]1C2	283 to 284
COc1ccc(C2CCN(C(=O)/C(=N/O)C(N)=O)CC2)cc1OC1CCCC1	109 to 111
COc1cc(C(F)(F)F)c2[nH]c3c(c2c1)CNCC3	140 to 144
Cc1[nH]cnc1CCC(=O)N(C)C	62 to 64
N#Cc1cc(F)c(N2C(=O)c3ccccc3C2=O)cc1O	247
CCOC(=O)c1[nH]c2cc(F)c(Cl)cc2c1Sc1cc(C)cc(C)c1	170 to 173
COc1cc(Nc2c(C#N)cnc3cc4ccccc4cc23)c(C)cc1Cl	195 to 197
COc1ccc(-c2ccc(-c3nc(-c4ccc(C(F)(F)F)cc4)oc3C)cc2)cc1	167 to 168
COC(=O)c1cc(C23CC4CC(CC(C4)C2)C3)c(O)cc1O	167 to 169
CCCCNC(=O)NS(=O)(=O)c1c(C(=O)OC)cnn1C	88 to 90
C=C(C(=O)O)c1ccc2cc(OC)ccc2c1	175
NC1=C(C(=O)c2ccc(Cl)cc2Cl)OC2N=C(O)C=CC12 (configuration not stated)	> 305
COc1ccc(C=Cc2ccc([N+](=O)[O-])cc2)cc1C	109 to 111
COC(=O)CCSCCNC(=O)/C=C/C=C/c1ccccc1	58 to 60
ClCCCCCCOc1ccc(C2=C(c3ccccc3)CCCc3cc(OC4CCCCO4)ccc32)cc1 (configuration not stated)	84 to 86
CCC1Cc2cc(NC(C)=O)ccc2C1=O (configuration not stated)	154 to 155
CC(C)CCNC1=NS(=O)(=O)c2sc(Cl)cc2N1	230 to 232
CN1Cc2c(Br)cc3c(c2C1)NC(=O)C3=O	> 300

Structure (SMILES)	melting point [°C]
CON1CCC(CC2NC(=O)C(c3cc(C)ccc3C)=C2O)CC1 (configuration not stated)	116 to 119
O=S1(=O)NCN(CCCCF)c2cc(Cl)c(Cl)cc21	141 to 143
O=C(O)COc1ccc(-c2ccc(=O)[nH]n2)cc1Cl	227
Cc1noc2cc3c(cc12)C1(CO3)C(=O)Nc2ccccc21 (configuration not stated)	226 to 227
Cc1noc(NS(=O)(=O)c2cccc(Cl)c2Cl)c1Br	166 to 169
CC(=O)Oc1c(C)c(C)c2c(c1C)CC(C)(C=O)O2 (configuration not stated)	78 to 79
C=C(C)C(=O)OCCNC(=O)Nc1nc(=O)cc(C)[nH]1	208
CC(C)c1nc(CC#N)n(C)c1Sc1cc(Cl)cc(Cl)c1	103 to 105
Cc1cc(N)c([N+](=O)[O-])cc1NCC(O)CO (configuration not stated)	150
Cc1nc2ccccn2c(=O)c1CCN1CCc2oc3ccccc3c2C1	186
FC(F)(F)c1cccc(-c2cnnn2-c2cc(Cl)ccc2-c2nnn[nH]2)c1	230 to 232
Cc1c(N)cc([N+](=O)[O-])c(N)c1C	159
CC(C)(C)OC(=O)Nc1cc(N2CCC3(CC2)OCCO3)c(-c2ccccc2F)cc1[N+](=O)[O-]	164
C#CCON=C(C(=O)OC)c1nsc(NC(=O)OC(C)(C)C)n1	72 to 75
COc1cc(Cl)cc(C)c1Nc1nc2c(Cl)ccc(C(=O)C(C)(C)C)c2n1C	249 to 250
Cc1cc(C)c(COC2CC(n3cc(F)c(=O)[nH]c3=O)OC2CO)c(C)c1 (configuration not stated)	179 to 181
COc1ccc2c(c1)C(=O)C(Cc1ccccc1)CS2 (configuration not stated)	66 to 68
c1ccc2[nH]c(SSCCSSc3nc4ccccc4[nH]3)nc2c1	190 to 192
FC(F)(F)C1(c2cc(Cl)cc(Cl)c2)CC(c2ccc(-n3ccnc3)cc2)=NO1 (configuration not stated)	193 to 195
CN1CC(c2cc[nH]n2)CC2c3cccc4[nH]cc(c34)CC21 (configuration not stated)	160 to 162
CCc1nc2cnc3ccccc3c2n1CC(C)C	72 to 73.5

Further lines, results first:

melting point [°C]	Structure (SMILES)
218 to 221	NC(=O)c1ccc(F)c2c1CC(NCCCc1c[nH]c3ccc(Cl)cc13)CO2 (configuration not stated)
164 to 166	COC(=O)c1c(C(=O)OC)c(-c2ccc(Cl)cc2)n2c1Cc1ccccc1C2
272 to 274	O=C(NC1CC1)c1ccc2c(=O)nc(-c3ccccn3)sc2c1
171	OC(c1ccc(F)cc1)c1ccc2noc(-c3cccc(Cl)c3)c2c1 (configuration not stated)
195 to 197	CCOC(=O)c1ccc(-c2ncc(-c3ccc(Cl)cc3)o2)cc1
81 to 91	CSCC(=O)[C@H](Cc1ccccc1)NC(=O)[C@H](CC(C)C)NC(=O)OCc1ccccc1
94 to 96	CCOc1ccc(CC2(C)CNCCN2Cc2ccccc2)cc1OCC (configuration not stated)
97	OC(c1ccccc1)c1cc(Cl)ccc1CNC(=S)NCCc1ccccc1 (configuration not stated)
115 to 117	Oc1ccc(Br)cc1C(O)c1ccc2ccccc2c1 (configuration not stated)
158 to 160	COC(CNC(=O)N(N=Cc1ccccc1)c1cc(Cl)c(Cc2ccc(C(=O)c3ccc(Cl)cc3)cc2)c(Cl)c1)OC
164 to 165	CC1(O)OC(=O)C(c2c(F)cc(F)cc2F)=C1c1ccc2ccccc2c1 (configuration not stated)
239 to 243	CCCc1c(OCc2cccn3c(=O)c(CC(=O)O)cnc23)ccc(C(C)=O)c1O
176 to 178	CCCC(=O)c1cnc2cc(CO)ccc2c1Nc1ccccc1C
150 to 152	COC(=O)c1ccc2cc(-c3cccc(OC)c3)oc2c1
218 to 220	CC(C)c1ccc(-c2cnc(-c3cccc(C(=O)O)c3)s2)cc1
133 to 135	CCOC(=O)c1ccc(-c2n[nH]c3ccccc23)cc1
234 to 235	Cc1ccc(NC(=O)c2cccc(CN3C(=O)C4(COc5cc6c(cc54)CCO6)c4ccccc43)c2)c(C)c1 (configuration not stated)
262 to 264	C=C(Nc1nc(-c2ccccc2)c(-c2nc3ccccc3c(=O)n2-c2ccc(OC)cc2)s1)c1ccco1

melting point [°C]	Structure (SMILES)
50 to 52	CCOC(=O)CC(=O)NCc1ccccc1
130 to 132	Cc1oc(-c2ccccc2)nc1CCOc1cccc2sccc12
137	COc1c(C(=O)NCCN2CCN(c3cccc(Cl)c3Cl)CC2)cc(Br)c2ccccc12
154 to 155	CCOC(=O)c1cc2c3cccc(OC)c3ncn2c1
126	C=CCc1cccc2c(=O)c(C)c(C=Cc3ccccc3)oc12
155 to 157	COc1ccc(N(CCCC(=O)O)C(=O)C(C)N(C(C)=O)c2ccc(OC)cc2)cc1 (configuration not stated)
195 to 196	COc1cc(C(=O)O)ccc1Cc1cn(C)c2ccc(CCNC(=O)N(C)C)cc12
179	O=C(Nc1ccccc1S(=O)(=O)N1CCCCC1)N[C@@H](Cc1ccc(Nc2nccc3ccncc23)cc1)C(=O)O
213 to 215	NC(=O)c1cc(-n2c(-c3ccccc3)cc3c2CCc2ccccc2-3)ccc1O
215 to 216	Cc1ncc2c(n1)-c1ccc(Cl)cc1C(c1ccccc1Cl)=[N+]([O-])C2
240 to 241	COC(=O)[C@]1(C)Cc2c([nH]c3ccc(Br)cc23)[C@@H](c2cccc(O)c2)N1 (racemic)
126 to 128	COc1ccc(CN(C(=S)Nc2ccccc2)c2ccc(NNC(C)=O)cc2)cc1
153 to 154	Cc1ccc2c3c(ccc2n1)OC[C@H](CN1CCN(c2ccc4cc(Br)ccc4n2)CC1)O3
123 to 127	CCn1cc(C(=O)NCc2ccc(Cl)cc2)c(=O)c2cc(CN(C)C[C@@H](O)c3ccco3)sc21
202 to 204	CC(=O)N1N=C(c2ccc([N+](=O)[O-])cc2)c2cc3c(cc2C=C1C)OCCOC3
243 to 245	Cc1oc(-c2ccccc2)nc1CCOc1ccc(C[C@H](NC(=O)C(F)=Cc2ccccc2)C(=O)O)cc1Br
88 to 90	CCOC(=O)Cc1c(C)n(Cc2cccc(OC)c2)c2ccc(OC)cc12
